Test results reported in ChEMBL document CHEMBL1131585, “Novel orally active growth hormone secretagogues” (J Med Chem, 1998).
Where a SMILES comes first, the peptide text is derived from it. [ ]: non-standard residue; d: D form. d2Nal = N[C@H](Cc1ccc2ccccc2c1)C(=O)O; Aib = CC(C)(N)C(=O)O

Experiments:
[1] = target: Growth hormone secretagogue receptor type 1 (Rattus norvegicus) (UniProt O08725); experiment: (§1) Tested for GH-releasing property using classical rat pituitary cell assay; format: functional, cell-based; conditions: Pituitary gland cell
[2] = target: Growth hormone secretagogue receptor type 1 (Rattus norvegicus, UniProt O08725); experiment: as §1; format: functional, cell-based, Pituitary gland cell
Sus scrofa [3] = experiment: Tested for in vivo activity against GH release after iv administration in swine
[4] = Oral bioavailability in dog (Beagle); format: ADME, organism-based, Canis lupus familiaris; conditions: in vivo; for bioavailability: beagle
Canis familiaris [5] = experiment: Compound was tested Growth Hormone(GH) release after 0.5 mg/kg administration (Po) in Beagle dogs; format: functional, organism-based; design: dose 0.5 mg/kg; conditions: Canis lupus familiaris
Canis familiaris [6] = experiment: Compound was tested Growth Hormone(GH) release after 10 mg/kg administration (Po) in Beagle dogs; format: functional, organism-based; design: dose 10 mg/kg; conditions: Canis lupus familiaris
Canis familiaris [7] = experiment: Compound was tested Growth Hormone(GH) release after 2.5 mg/kg administration (Po) in Beagle dogs; format: functional, organism-based; design: dose 2.5 mg/kg; conditions: Canis lupus familiaris
[8] = Compound was tested for maximum blood concentration after 0.5 mg/kg administration (Po) in Beagle dogs; nM/L maximum blood concentration; format: ADME, organism-based, Canis lupus familiaris; design: route oral, dose 0.5 mg/kg; conditions: dog
[9] = Compound was tested for maximum blood concentration after 10 mg/kg administration (Po) in Beagle dogs; nM/L maximum blood concentration; format: ADME, organism-based, Canis lupus familiaris; design: route oral, dose 10 mg/kg; conditions: dog
[10] = Compound was tested for maximum blood concentration after 2.5 mg/kg administration (Po) in Beagle dogs; nM/L maximum blood concentration; format: ADME, organism-based, Canis lupus familiaris; design: route oral, dose 2.5 mg/kg; conditions: dog
[11] = Compound was tested for oral bioavailability after 0.5 mg/kg administration (Po) in Beagle dogs; fpo % Oral Bioavailability; format: ADME, organism-based, Canis lupus familiaris; conditions: dog, in vivo
[12] = Compound was tested for oral bioavailability after 10 mg/kg administration (Po) in Beagle dogs; fpo % Oral Bioavailability; format: ADME, organism-based, Canis lupus familiaris; conditions: dog, in vivo
[13] = Oral bioavailability in dog (Beagle) (dose 2.5 mg/kg); format: ADME, organism-based, Canis lupus familiaris; conditions: in vivo
Rattus norvegicus [14] = species on record: Rattus norvegicus; experiment: Compound was tested against the effect of D-Lys3-GHRP-6 on the release of growth hormone from pituitary cells in rat; format: functional, cell-based; conditions: Pituitary gland cell
Rattus norvegicus [15] = species on record: Rattus norvegicus; experiment: Compound was tested against the effect of L-692400 on the release of growth hormone from pituitary cells in rat; format: functional, cell-based; conditions: Pituitary gland cell
Rattus norvegicus [16] = species on record: Rattus norvegicus; experiment: Compound was tested against the effect of N-acetyl-Tyr-D-Arg(1-29)GHRH-NH2 on the release of growth hormone from pituitary cells in rat; format: functional, cell-based; conditions: Pituitary gland cell
Rattus norvegicus [17] = species on record: Rattus norvegicus; experiment: Compound was tested against the effect of substance P antagonist on the release of growth hormone from pituitary cells in rat; format: functional, cell-based; conditions: Pituitary gland cell
Sus scrofa [18] = experiment: Compound was tested for potency against GH release iv administration in swine; format: functional
Sus scrofa [19] = experiment: Compound was tested for efficacy against GH release iv administration in swine; format: functional
Sus scrofa [20] = experiment: Compound was tested for potency against GH release upon iv administration in swine; format: functional
Sus scrofa [21] = experiment: Compound was tested for efficacy against GH release upon iv administration in swine; format: functional
[22] = Compound was tested for oral bioavailability after 10 mg/kg administration (Po) in Beagle dogs; F % Oral Bioavailability; format: ADME, organism-based, Canis lupus familiaris; conditions: dog, in vivo
[23] = Compound was tested for maximum concentration in blood after 10 mg/kg administration (Po) in Beagle dogs; nmol/L maximum blood concentration; conditions: dog
[24] = Compound was tested for maximum concentration in blood after 2.5 mg/kg administration (Po) in Beagle dogs; nmol/L maximum blood concentration; conditions: dog

Sequence of Growth hormone secretagogue receptor type 1 (O08725 whole entry): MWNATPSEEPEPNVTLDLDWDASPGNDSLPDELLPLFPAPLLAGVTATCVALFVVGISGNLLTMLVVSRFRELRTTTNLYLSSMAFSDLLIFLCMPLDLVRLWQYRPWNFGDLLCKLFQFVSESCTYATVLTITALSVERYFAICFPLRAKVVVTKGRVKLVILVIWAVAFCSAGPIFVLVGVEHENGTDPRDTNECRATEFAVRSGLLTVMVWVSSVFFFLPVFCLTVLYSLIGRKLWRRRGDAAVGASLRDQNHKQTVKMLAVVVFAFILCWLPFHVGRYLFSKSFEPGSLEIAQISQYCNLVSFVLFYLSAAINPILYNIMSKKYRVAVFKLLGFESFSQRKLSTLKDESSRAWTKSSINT
Sequence of Growth hormone secretagogue receptor type 1 (Rattus norvegicus) (O08725 whole entry): as above

| Compound | Emax [1] | EC50 [2] | Cmax [GH] (Sus scrofa [3]) | bioavailability [4] | further results |
| --- | --- | --- | --- | --- | --- |
| CNC(=O)[C@@H](Cc1ccccc1)N(C)C(=O)[C@@H](Cc1csc2ccccc12)N(C)C(=O)/C=C/CC(C)(C)N | 80% | 35 nM |  |  |  |
| C[C@H](O)CNC(=O)[C@@H](Cc1ccc(F)c(F)c1)N(C)C(=O)[C@@H](Cc1ccc2ccccc2c1)N(C)C(=O)/C=C/CC(C)(C)N | 100% | 5 nM | 5 ng/mL |  |  |
| CNC(=O)[C@@H](Cc1ccccc1)N(C)C(=O)[C@@H](Cc1ccc(-c2ccccc2)cc1)N(C)C(=O)/C=C/CC(C)(C)N | 120% | 3 nM |  | 0% |  |
| CNC(=O)[C@@H](Cc1ccccc1)N(C)C(=O)[C@@H](COCc1ccccc1)N(C)C(=O)/C=C/CC(C)(C)N | 125% | 5 nM | 0.4 ng/mL | 11% |  |
| CNC(=O)[C@@H](Cc1ccc(F)cc1)N(C)C(=O)[C@@H](Cc1ccc2ccccc2c1)N(C)C(=O)/C=C/CC(C)(C)N | 90% | 8 nM | 30 ng/mL | 49% | Cmax [GH] (Canis familiaris [5]): 2.7 ng/mL; Cmax [GH] (Canis familiaris [6]): 12 ng/mL; Cmax [GH] (Canis familiaris [7]): 4.5 ng/mL; Cmax [8]: 99 nM; Cmax [9]: 3030 nM; Cmax [10]: 247 nM; bioavailability [11]: 53%; bioavailability [12]: 138%; bioavailability [13]: 55%; IC50 (Rattus norvegicus [14]): 9000 nM; IC50 (Rattus norvegicus [15]): 14000 nM; IC50 (Rattus norvegicus [16]): > 10000 nM; IC50 (Rattus norvegicus [17]): 49 nM; ED50 (Sus scrofa [18]): 0.129 µmol/kg; Emax (Sus scrofa [19]): 86 ng/mL |
| CC(C)(N)C(=O)N[C@@H](Cc1c[nH]cn1)C(=O)N[C@H](Cc1ccc2ccccc2c1)C(=O)N[C@H](Cc1ccccc1)C(=O)N[C@@H](CCCCN)C(N)=O [IPAMORELIN] (H-[Aib]H[d2Nal][dF]K-NH2) |  |  |  |  | ED50 (Sus scrofa [18]): 0.0023 µmol/kg; Emax (Sus scrofa [19]): 65 ng/mL |
| C[C@H](NC(=O)C(Cc1c[nH]c2ccccc12)NC(=O)[C@@H](N)Cc1c[nH]cn1)C(=O)N[C@@H](Cc1c[nH]c2ccccc12)C(=O)NC(Cc1ccccc1)C(=O)N[C@@H](CCCCN)C(N)=O (single isomer, unassigned) | 100% |  |  |  | IC50 (Rattus norvegicus [14]): 8000 nM; IC50 (Rattus norvegicus [15]): 10000 nM; IC50 (Rattus norvegicus [16]): > 10000 nM; IC50 (Rattus norvegicus [17]): 38 nM; ED50 (Sus scrofa [20]): 0.0039 µmol/kg; Emax (Sus scrofa [21]): 74 ng/mL |
| CNC(=O)[C@@H](Cc1ccc(F)c(F)c1)N(C)C(=O)[C@@H](Cc1ccc2ccccc2c1)N(C)C(=O)/C=C/CC(C)(C)N | 85% | 17 nM | 6 ng/mL | 54% |  |
| C[C@H](O)CNC(=O)[C@@H](Cc1cccs1)N(C)C(=O)[C@@H](Cc1ccc2ccccc2c1)N(C)C(=O)/C=C/CC(C)(C)N | 120% | 45 nM |  |  |  |
| C[C@@H](O)CNC(=O)[C@@H](Cc1ccccc1)N(C)C(=O)[C@@H](Cc1ccc2ccccc2c1)N(C)C(=O)/C=C/CC(C)(C)N (stereo in doubt; 7o) [listing 1 of 2 here] | 105% |  | 9 ng/mL |  |  |
| CN(C(=O)/C=C/CC(C)(C)N)[C@H](Cc1ccc2ccccc2c1)C(=O)N(C)[C@H](Cc1ccccc1)C(=O)NCC1CC1 | 105% | 1.8 nM | 14 ng/mL | 24% |  |
| C[C@@H](O)CNC(=O)[C@@H](Cc1ccccc1)N(C)C(=O)[C@@H](Cc1ccc2ccccc2c1)N(C)C(=O)/C=C/CC(C)(C)N (stereo in doubt; 7b) [listing 1 of 2 here] | 130% |  | 26 ng/mL |  | Cmax [GH] (Canis familiaris [5]): 1.8 ng/mL; Cmax [GH] (Canis familiaris [6]): 42.5 ng/mL; Cmax [GH] (Canis familiaris [7]): 6.6 ng/mL |
| CN(C(=O)/C=C/CC(C)(C)N)[C@H](Cc1cccc2ccccc12)C(=O)N(C)[C@H](Cc1ccccc1)C(=O)NCC1CCCO1 (stereo partly drawn) | 110% | 21 nM |  |  |  |
| CNC(=O)[C@@H](Cc1cccs1)N(C)C(=O)[C@@H](Cc1ccc2ccccc2c1)N(C)C(=O)/C=C/CC(C)(C)N | 110% | 2 nM | 55 ng/mL | 15% |  |
| CN(C(=O)/C=C/CC(C)(C)N)[C@H](Cc1ccc2ccccc2c1)C(=O)N(C)[C@H](Cc1ccccc1)C(=O)NCC1CCCO1 (stereo partly drawn) | 100% | 16 nM | 9 ng/mL | 17% |  |
| C[C@@H](O)CNC(=O)[C@@H](Cc1ccccc1)N(C)C(=O)[C@@H](Cc1ccc2ccccc2c1)N(C)C(=O)/C=C/CC(C)(C)N (stereo in doubt; 7b) [listing 2 of 2 here] |  | 8.9 nM |  |  | bioavailability [22]: 41%; bioavailability [13]: 21%; F [4]: 25%; IC50 (Rattus norvegicus [14]): 8000 nM; IC50 (Rattus norvegicus [15]): 11000 nM; IC50 (Rattus norvegicus [16]): > 10000 nM; IC50 (Rattus norvegicus [17]): 140 nM; ED50 (Sus scrofa [18]): 0.031 µmol/kg; Emax (Sus scrofa [19]): 96 ng/mL; Cmax [23]: 2320 nM; Cmax [24]: 260 nM |
| CCNC(=O)[C@@H](Cc1ccccc1)N(C)C(=O)[C@@H](Cc1ccc2ccccc2c1)N(C)C(=O)/C=C/CC(C)(C)N | 105% | 13 nM |  | 14% |  |
| C[C@@H](O)CNC(=O)[C@@H](Cc1ccccc1)N(C)C(=O)[C@@H](Cc1ccc2ccccc2c1)N(C)C(=O)/C=C/CC(C)(C)N (stereo in doubt; 7o) [listing 2 of 2 here] |  | 9 nM |  |  | F [4]: 0% |
| CNC(=O)[C@@H](Cc1ccccc1)N(C)C(=O)[C@@H](Cc1ccc2ccccc2c1)N(C)C(=O)/C=C/CC(C)(C)N [TABIMORELIN] | 110% | 18 nM |  |  |  |
| CNC(=O)[C@@H](Cc1ccccc1)N(C)C(=O)[C@@H](Cc1cccc2ccccc12)N(C)C(=O)/C=C/CC(C)(C)N | 115% | 24 nM | 12 ng/mL |  |  |
| CNC(=O)[C@@H](Cc1ccc(I)cc1)N(C)C(=O)[C@@H](Cc1ccc2ccccc2c1)N(C)C(=O)/C=C/CC(C)(C)N | 110% | 20 nM | 0.4 ng/mL | 26% |  |
